Measurements: patent US12018059B2, “Human amylin analog polypeptides and methods of use” (Intarcia Therapeutics, Inc., priority 2018, dated 2024)
Starred links: 1 amine or outer side, 2 acyl side, 3 side chain; linkers in the order of their positions; H or OH if unused. Positions of bridges follow the written chain, without caps; N, C: chain ends. Non-standard residues stand in square brackets, D forms with d. Residues, ends and D or L forms follow the SMILES beside them. Groups on a side chain read outwards from the residue. *: point of attachment. γGlu = O=C(O)[C@H](CCC(=O)[*:2])N[*:1]; Palmitoyl = CCCCCCCCCCCCCCCC(=O)*; X5 = O=C(O)CCCCCCCCCCCC(=O)*; AEEA = NCCOCCOCC(=O)O

Assay: in vivo
Set-up: species or system Sprague-Dawley rats
Settings: rat, iv, 0.033 mg/kg
Procedure: Peptides were dissolved in sterile saline and administered as a 1-hour intravenous infusion to non-fasted male Sprague-Dawley rats (n=3 per group) via femoral vein cannula at a final dose of 0.033 mg/kg. […] Blood samples (approximately 250 μL) were collected for pharmacokinetic analysis via a jugular vein cannula at 0.25, 0.5, 0.75, 1, 1.17, 1.33, 1.5, 2, 4, 6, 8, 24, 30 and 48 hr post-start of infusion into microtainer tubes containing K2EDTA as anticoagulant and 25 μL of a protease inhibitor cocktail. Plasma was prepared by centrifugation and stored at −80° C. until analysis. The results of this analysis are shown in Table 9 and few exemplars in FIGS. 3a-3b. […]
A 60 μL aliquot of each plasma sample was placed into to a 96-well plate. To each well was added 6 μL of 0.5% Tween-20. Plates were then vortexed mixed for 10 minutes at 1200 rpm before 180 μL of 0.1% TFA in 2:1 ethanol:acetonitrile containing an appropriate internal standard was added to each well. Plates were vortex mixed for 5 min at 1300 rpm, and then centrifuged for 10 min at 2844×g. Supernatants (180 μL) were placed into a clean 96-well plate and evaporated under a nitrogen stream at 45° C. Residues were reconstituted in 80 μL of 20% acetonitrile (aq) containing 0.1% formic acid.
A […] aliquot of each plasma sample was diluted with […] of 10 mM ammonium acetate (pH 6.8) containing an appropriate internal standard and loaded onto an Oasis WCX microElution plate (Waters Corporation, Milford, MA) that had been pre-conditioned with […] of methanol and […] of deionized water. Samples were washed with […] of 5% ammonium hydroxide (aq) followed by […] of 20% acetonitrile in water. The analyte was eluted with […] of 5% formic acid in 75:25 acetonitrile:water. The eluent was dried under a nitrogen stream. Residues were reconstituted in 80 μL of 20% acetonitrile (aq) containing 0.1% formic acid.
All calibration standards were prepared in control rat plasma containing K2EDTA and protease inhibitor cocktail.
Samples and standards were analyzed by TurbolonSpray™ UPLC-MS/MS using a system consisting of a CTC HTS PAL auto-injector (Leap, Carrboro, NC), an Agilent Infinity 1290 system with column oven (Palo Alto, CA), a Valco switching valve (Houston, TX), and either an AB Sciex API 5600 TripleTOF™ or Sciex API 4000QTrap mass spectrometer (Framingham, MA). Samples were injected onto a 2.1×50 mm reverse phase C18 analytical column, typically a Waters CORTECS UPLC C18+, 1.6 μm (Waters Corporation, Milford, MA) or similar. […] Initial conditions consisted of 90% A and 10% B. The organic component was increased to 95% B over a period of 3-4 minutes, depending on the peptide. Typical flow rates were 600 μL/min. The column temperature was held constant at 40 or 50° C. Peptides were quantified by monitoring one or more product ions produced from a multiply charged parent ion.

Compound | Vd [L/kg] | clearance [mL/min/kg] | half-life [h]
CCCCCCCCCCCCCCCC(=O)N[C@@H](CCC(=O)N[C@@H](CCC(=O)N[C@@H](CCC(=O)N[C@@H](CCC(=O)NCCCC[C@H](NC(=O)[C@H](CCC(=O)O)NC(=O)[C@H](CC(N)=O)NC(=O)[C@H](C)NC(=O)[C@H](CC(C)C)NC(=O)[C@H](CCCNC(=N)N)NC(=O)[C@H](CCC(N)=O)NC(=O)[C@@H](NC(=O)[C@H](C)NC(=O)[C@@H]1CSSC[C@H](NC(=O)[C@@H](N)CO)C(=O)N[C@@H](CC(N)=O)C(=O)N[C@@H]([C@@H](C)O)C(=O)N[C@@H](CO)C(=O)N[C@@H]([C@@H](C)O)C(=O)N1)[C@@H](C)O)C(=O)N[C@@H](Cc1c[nH]cn1)C(=O)N[C@@H](CCCCN)C(=O)N[C@@H](CO)C(=O)N[C@@H](CO)C(=O)N[C@@H](CC(N)=O)C(=O)N[C@@H](CC(N)=O)C(=O)N[C@@H](Cc1ccccc1)C(=O)NCC(=O)N1CCC[C@H]1C(=O)N[C@H](C(=O)N[C@@H](CC(C)C)C(=O)N1CCC[C@H]1C(=O)N1CCC[C@H]1C(=O)N[C@H](C(=O)N[C@@H](CCCCN)C(=O)N[C@H](C(=O)NCC(=O)N[C@@H](CO)C(=O)N[C@@H](CCC(=O)O)C(=O)N[C@H](C(=O)N[C@@H](Cc1ccc(O)cc1)C(N)=O)[C@@H](C)O)C(C)C)[C@@H](C)O)[C@@H](C)CC)C(=O)O)C(=O)O)C(=O)O)C(=O)O [Compound A21] (H-SCNTSTCATQRLANEK([γGlu-γGlu-γGlu-γGlu-Palmitoyl])HKSSNNFGPILPPTKVGSETY-NH2; disulfide 2-7) | 0.131 | 0.178 | 10.4
CCCCCCCCCCCCCCCC(=O)N[C@@H](CCC(=O)NCCOCCOCC(=O)NCCOCCOCC(=O)N[C@@H](CCC(=O)NCCCC[C@@H](NC(=O)[C@H](CCC(=O)O)NC(=O)[C@H](CC(N)=O)NC(=O)[C@H](C)NC(=O)[C@H](CC(C)C)NC(=O)[C@H](CCCNC(=N)N)NC(=O)[C@H](CCC(N)=O)NC(=O)[C@@H](NC(=O)[C@H](C)NC(=O)[C@@H]1CSSC[C@H](NC(=O)[C@@H](N)CO)C(=O)N[C@@H](CC(N)=O)C(=O)N[C@@H]([C@@H](C)O)C(=O)N[C@@H](CO)C(=O)N[C@@H]([C@@H](C)O)C(=O)N1)[C@@H](C)O)C(=O)N[C@@H](Cc1c[nH]cn1)C(=O)N[C@@H](CCCCN)C(=O)N[C@@H](CO)C(=O)N[C@@H](CO)C(=O)N[C@@H](CC(N)=O)C(=O)N[C@@H](CC(N)=O)C(=O)N[C@@H](Cc1ccccc1)C(=O)NCC(=O)N1CCC[C@H]1C(=O)N[C@H](C(=O)N[C@@H](CC(C)C)C(=O)N1CCC[C@H]1C(=O)N1CCC[C@H]1C(=O)N[C@H](C(=O)N[C@@H](CCCCN)C(=O)N[C@H](C(=O)NCC(=O)N[C@@H](CO)C(=O)N[C@@H](CCC(=O)O)C(=O)N[C@H](C(=O)N[C@@H](Cc1ccc(O)cc1)C(N)=O)[C@@H](C)O)C(C)C)[C@@H](C)O)[C@@H](C)CC)C(=O)O)C(=O)O [Compound A25] (H-SCNTSTCATQRLANE[dK]([γGlu-AEEA-AEEA-γGlu-Palmitoyl])HKSSNNFGPILPPTKVGSETY-NH2; disulfide 2-7; N-terminus assumed) | 0.249 | 0.788 | 4.97
CC[C@H](C)[C@H](NC(=O)[C@@H]1CCCN1C(=O)CNC(=O)[C@H](Cc1ccccc1)NC(=O)[C@H](CC(N)=O)NC(=O)[C@H](CC(N)=O)NC(=O)[C@H](CO)NC(=O)[C@H](CO)NC(=O)[C@H](CCCCN)NC(=O)[C@H](Cc1c[nH]cn1)NC(=O)[C@H](CC(C)C)NC(=O)[C@H](CCCCNC(=O)CCCCCCCCCCCC(=O)O)NC(=O)[C@H](CC(N)=O)NC(=O)[C@H](C)NC(=O)[C@H](CC(C)C)NC(=O)[C@H](CCCNC(=N)N)NC(=O)[C@H](CCC(N)=O)NC(=O)[C@@H](NC(=O)[C@H](C)NC(=O)[C@@H]1CSSC[C@H](NC(=O)[C@@H](N)CO)C(=O)N[C@@H](CC(N)=O)C(=O)N[C@@H]([C@@H](C)O)C(=O)N[C@@H](CO)C(=O)N[C@@H]([C@@H](C)O)C(=O)N1)[C@@H](C)O)C(=O)N[C@@H](CC(C)C)C(=O)N1CCC[C@H]1C(=O)N1CCC[C@H]1C(=O)N[C@H](C(=O)N[C@@H](CCCCN)C(=O)N[C@H](C(=O)NCC(=O)N[C@@H](CO)C(=O)N[C@@H](CCC(=O)O)C(=O)N[C@H](C(=O)N[C@@H](Cc1ccc(O)cc1)C(N)=O)[C@@H](C)O)C(C)C)[C@@H](C)O [Compound A31] (H-SCNTSTCATQRLANK(X5)LHKSSNNFGPILPPTKVGSETY-NH2; disulfide 2-7) | 0.57 | 18.9 | 0.404

More lines, now with the values ahead:

Vd [L/kg] | clearance [mL/min/kg] | half-life [h] | Compound
0.17 | 0.485 | 5.41 | CCCCCCCCCCCCCCCC(=O)N[C@@H](CCC(=O)N[C@@H](CCC(=O)NCCCC[C@@H](NC(=O)[C@H](CCC(=O)O)NC(=O)[C@H](CCC(N)=O)NC(=O)[C@H](C)NC(=O)[C@H](CC(C)C)NC(=O)[C@H](CCCNC(=N)N)NC(=O)[C@H](CCC(N)=O)NC(=O)[C@@H](NC(=O)[C@H](C)NC(=O)[C@@H]1CSSC[C@H](NC(=O)[C@@H](N)CO)C(=O)N[C@@H](CC(N)=O)C(=O)N[C@@H]([C@@H](C)O)C(=O)N[C@@H](CO)C(=O)N[C@@H]([C@@H](C)O)C(=O)N1)[C@@H](C)O)C(=O)N[C@@H](Cc1c[nH]cn1)C(=O)N[C@@H](CCCCN)C(=O)N[C@@H](CO)C(=O)N[C@@H](CO)C(=O)N[C@@H](CC(N)=O)C(=O)N[C@@H](CC(N)=O)C(=O)N[C@@H](Cc1ccccc1)C(=O)NCC(=O)N1CCC[C@H]1C(=O)N[C@H](C(=O)N[C@@H](CC(C)C)C(=O)N1CCC[C@H]1C(=O)N1CCC[C@H]1C(=O)N[C@H](C(=O)N[C@@H](CCCCN)C(=O)N[C@H](C(=O)NCC(=O)N[C@@H](CO)C(=O)N[C@@H](CCC(=O)O)C(=O)N[C@H](C(=O)N[C@@H](Cc1ccc(O)cc1)C(N)=O)[C@@H](C)O)C(C)C)[C@@H](C)O)[C@@H](C)CC)C(=O)O)C(=O)O [Compound A28] (H-SCNTSTCATQRLAQE[dK]([γGlu-γGlu-Palmitoyl])HKSSNNFGPILPPTKVGSETY-NH2; disulfide 2-7)
0.244 | 3.93 | 1.32 | CCCCCCCCCCCCCCCC(=O)N[C@@H](CCC(=O)NCCCC[C@@H](NC(=O)[C@H](CCC(=O)O)NC(=O)[C@H](CC(N)=O)NC(=O)[C@H](C)NC(=O)[C@H](CC(C)C)NC(=O)[C@H](CCCNC(=N)N)NC(=O)[C@H](CCC(N)=O)NC(=O)[C@@H](NC(=O)[C@H](C)NC(=O)[C@@H]1CSSC[C@H](NC(=O)[C@@H](N)CO)C(=O)N[C@@H](CC(N)=O)C(=O)N[C@@H]([C@@H](C)O)C(=O)N[C@@H](CO)C(=O)N[C@@H]([C@@H](C)O)C(=O)N1)[C@@H](C)O)C(=O)N[C@@H](Cc1c[nH]cn1)C(=O)N[C@@H](CCCCN)C(=O)N[C@@H](CO)C(=O)N[C@@H](CO)C(=O)N[C@@H](CC(N)=O)C(=O)N[C@@H](CC(N)=O)C(=O)N[C@@H](Cc1ccccc1)C(=O)NCC(=O)N1CCC[C@H]1C(=O)N[C@H](C(=O)N[C@@H](CC(C)C)C(=O)N1CCC[C@H]1C(=O)N1CCC[C@H]1C(=O)N[C@H](C(=O)N[C@@H](CCCCN)C(=O)N[C@H](C(=O)NCC(=O)N[C@@H](CO)C(=O)N[C@@H](CCC(=O)O)C(=O)N[C@H](C(=O)N[C@@H](Cc1ccc(O)cc1)C(N)=O)[C@@H](C)O)C(C)C)[C@@H](C)O)[C@@H](C)CC)C(=O)O [Compound A36] (H-SCNTSTCATQRLANE[dK]([γGlu-Palmitoyl])HKSSNNFGPILPPTKVGSETY-NH2; disulfide 2-7)
